Reference: patent EP0531938B1, “Acrylic gel material and gel-based medical preparation for percutaneous absorption employing the same” (NITTO DENKO CORPORATION, priority 1991, dated 1993)

Experiment: Solubility of drug in pressure-sensitive adhesive and in liquid component
Assay type: physicochemical
Details: percent by weight

O=[N+]([O-])O[C@H]1CO[C@H]2[C@@H]1OC[C@H]2O[N+](=O)[O-] [isosorbide dinitrate]
solubility in the pressure-sensitive adhesive (adhesive of Comparative Example 15 (95 parts 2-ethylhexyl acrylate, 5 parts acrylic acid)): 7%
solubility in isopropyl myristate: 2.1%
